The target in one data set is hTRPA1 (Homo sapiens, UniProt O75762). The experiment in a line: Whole-cell patch clamp block of inward current through hTRPA1. The format is cell-based. As for the experimental part: Data for TRPA1 inhibition and the selectivity of TRPA1 inhibition was obtained by this method for the compound of Formula (Ia) and included in Table 1 and Table 2. All currents were recorded in whole-cell configuration using EPC-9 and EPC-10 amplifiers and Patchmaster software (HEKA). […] The standard pipette solution consisted of 140 mM CsAsp, 10 mM EGTA, 10 mM HEPES, 2.27 mM MgCl2, 1.91 mM CaCl2, 4 mM MgATP, and 0.1-0.3 mM Na2GTP, with pH adjusted to 7.2 with CsOH. In addition, a solution containing 145 mM CsCl, 10 mM HEPES, 10 mM EGTA and 1 mM MgCl2 (pH 7.2 adjusted with CsOH) can be used. The standard bath solution contained 150 mM NaCl, 10 mM HEPES, 10 mM glucose, 4.5 mM KCl, 1 mM EGTA, 3 mM MgCl2, with pH adjusted to 7.4 with NaOH. In some instances, 2 mM CaCl2 was added in place of EGTA and the concentration of MgCl2 was reduced to 1 mM.
Data were collected either by continuous recordings at −60 mV or by applying voltage ramps from a holding potential of 0 mV every 4 s. Continuous recordings were collected at 400 Hz and digitally filtered off-line at 10 Hz for presentation. Voltage ramps were applied from −100 mV to 100 mV over the course of 400 ms, and data were collected at 10 kHz and filtered at 2.9 kHz. Inward and outward currents were analyzed from the ramps at −80 and 80 mV, respectively. Liquid junction potential correction was not used.
Solutions were switched using a gravity-fed continuous focal perfusion system. To achieve rapid temperature changes, two temperature control and perfusion systems were employed simultaneously. For temperatures ≧22° C., a Warner Instruments bipolar temperature controller (TC-344B) and inline heater (SHM-8) were used. […] Temperatures were confirmed using a thermistor (Warner Instruments, TA-29), with temperatures at the recorded cell estimated to be within +/−2° C. of those reported.
IC50 of compounds was estimated by testing each compound at 5 micromolar and 500 nanomolar. […] IC50 for compounds between 500 nanomolar and 5 micromolar was similarly estimated. Compounds blocking 50% or more at 500 nanomolar are retested at multiple concentrations, and the % block at each is fitted by standard equations to determine IC50 accurately using a 5-6 point concentration/response experiment.

A short description of data set [1]: Oral bioavailability pharmacokinetic study. It counts as in vivo. The conditions noted are these: rat, plasma, PO versus IV. On the procedure:
The potency and pharmacokinetic (PK) properties of (a) the compound of Formula (Ia); and (b) comparator compound of Formula (III) were evaluated. Bioavailability was measured as well. A pharmacokinetic study was performed to obtain a plasma drug concentration vs time plot for the drug after both intravenous (IV) and oral (PO) administration. The absolute bioavailability is the dose-corrected area under curve (AUC) non-intravenous divided by AUC intravenous. The formula for calculating F for a drug administered by the oral route (PO) is given below.
The bioavailability was calculated using the equation shown below:
% F=AUC PO×Dose IV/AUC IV×Dose PO

Data set [2] is described as follows: 7-day repeat dose i.p. screening toxicity study in rats. The format is in vivo, rat. The conditions noted are these: female rats, 50 mg/kg/day i.p. for 7 consecutive days. As for the experimental part:
The compound of Formula (Ia) was evaluated in a 7-day repeat dose screening toxicity study in female rats. In order to maximize systemic exposure, rats were administered compound of Formula (Ia) i.p. at 50 mg/kg/day for 7 consecutive days, to obtain the results shown in FIG. 6. Clinical chemistry parameters were evaluated on Days 3 and 8. Histopathology was performed on select organs including the liver, kidney, spleen, and lung.

The subject of data set [3] is airway hyper-responsiveness to Carbachol. The experiment in a line: Sheep allergic asthma model, airway hyper-responsiveness (PC400) to Carbachol. The format is in vivo. The conditions noted are these: 24 hour post-challenge Carbachol. As for the experimental part:
Compounds were tested in the sheep model of experimental asthma reported in Abraham W M, Asthma & Rhinitis, 2000: 1205-1227 incorporated herein by reference in its entirety.
The unsedated sheep were restrained in a cart in the prone position with their heads immobilized. After topical anesthesia of the nasal passages with 2% lidocaine solution, a balloon catheter was advanced through one nostril into the lower esophagus. The sheep were intubated with a cuffed endotracheal tube through the other nostril. Pleural pressure was estimated with the esophageal balloon catheter. Lateral pressure in the trachea was measured with a sidehole catheter (inner dimension, 2.5 mm) advanced through and positioned distal to the tip of the endotracheal tube. Transpulmonary pressure, the difference between tracheal and pleural pressure, was measured with a differential pressure transducer catheter system. For the measurement of pulmonary resistance (RL), the proximal end of the endotracheal tube was connected to a pneumotachograph. […]
Baseline concentration response curves to aerosol Carbachol were obtained 1 to 3 days before commencement of drug/vehicle treatment. […] Baseline values of pulmonary resistance (RL) were obtained within 30 minutes of treatment and then re-measured 30 minutes before antigen challenge. […]

Each structure is given as a SMILES string. “Also recorded” adds a separate entry of the source. Read-outs that look alike come from different tables or passages of the source.

Sequence of hTRPA1 (O75762 whole entry): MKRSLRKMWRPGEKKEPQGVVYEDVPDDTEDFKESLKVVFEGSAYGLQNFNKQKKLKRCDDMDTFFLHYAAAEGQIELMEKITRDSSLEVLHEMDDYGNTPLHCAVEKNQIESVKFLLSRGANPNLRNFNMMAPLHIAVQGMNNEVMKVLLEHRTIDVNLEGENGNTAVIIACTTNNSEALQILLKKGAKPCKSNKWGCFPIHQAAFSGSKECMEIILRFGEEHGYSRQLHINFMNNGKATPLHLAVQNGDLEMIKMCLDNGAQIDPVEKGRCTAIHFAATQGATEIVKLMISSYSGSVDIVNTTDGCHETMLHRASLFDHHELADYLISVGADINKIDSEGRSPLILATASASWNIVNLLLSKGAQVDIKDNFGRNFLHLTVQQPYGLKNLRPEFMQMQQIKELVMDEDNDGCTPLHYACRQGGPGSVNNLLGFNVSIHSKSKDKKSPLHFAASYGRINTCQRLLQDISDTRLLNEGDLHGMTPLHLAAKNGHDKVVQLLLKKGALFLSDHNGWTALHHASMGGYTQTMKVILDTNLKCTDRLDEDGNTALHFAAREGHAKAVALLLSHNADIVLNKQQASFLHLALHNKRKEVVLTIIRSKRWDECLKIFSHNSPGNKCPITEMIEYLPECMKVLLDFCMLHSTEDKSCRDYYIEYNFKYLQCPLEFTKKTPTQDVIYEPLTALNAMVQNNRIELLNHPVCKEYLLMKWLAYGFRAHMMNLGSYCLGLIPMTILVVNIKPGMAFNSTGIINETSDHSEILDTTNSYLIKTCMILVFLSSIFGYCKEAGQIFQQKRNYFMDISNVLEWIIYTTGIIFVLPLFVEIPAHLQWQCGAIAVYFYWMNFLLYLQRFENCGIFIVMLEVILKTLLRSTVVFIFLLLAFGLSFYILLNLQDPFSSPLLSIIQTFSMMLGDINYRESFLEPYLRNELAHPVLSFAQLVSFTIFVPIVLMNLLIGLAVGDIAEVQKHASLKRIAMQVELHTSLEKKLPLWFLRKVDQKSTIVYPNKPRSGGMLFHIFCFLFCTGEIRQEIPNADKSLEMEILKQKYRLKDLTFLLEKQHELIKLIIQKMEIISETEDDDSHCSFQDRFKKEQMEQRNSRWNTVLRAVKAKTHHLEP

For orientation: IC50 means the midpoint of a concentration-inhibition curve. For orientation: bioavailability means dose-corrected exposure relative to a reference, in per cent. Regarding `C[C@H]1CCCN1c1ncc(-c2cccc(NC(=O)Cn3cnc4c3c(=O)n(C)c(=O)n4C)n2)cn1` [Formula (Ia)], the IC50 at hTRPA1 (hTRPA1, Human, current activation 10 micromolar AITC, whole cell patch, read-out: IC50 Inward current) is 93 ± 22 nM; on hTRPA1 (hTRPA1, class symbol, read-out: Potency (IC50) Human), 50 to 100 nM. For the same compound, at hTRPA1 (versus the eight channels of Table 2), the “selectivity for block of TRPA1 over all other tested channels” value is recorded as “at least 100 fold”. The bioavailability in data set [1] (oral, fed rats, read-out: Bioavailability (Rat) Fed) is over 50%; in data set [1] (po, fasted rats, read-out: Bioavailability (Rat) Fasted), 25 to 50%; in data set [1] (po, fed rats, read-out: Bioavailability (Rat) Fed), over 50%. For the same compound, the “clinical signs, body weight, clinical chemistry parameters” value in data set [2] is given as “no adverse clinical signs, changes in body weight, or changes in clinical chemistry parameters were noted”. Besides, the “histopathology of liver, kidney, spleen, lung” value in data set [2] (50 mg/kg/day) is “No histopathological findings in the liver, kidney, spleen, or lung were observed; also recorded: no adverse effects related to the compound of Formula (Ia) were identified”. The “airway hyper-responsiveness (PC400), relative to baseline” value in data set [3] (5 mg/kg PO) and in data set [3] (10 mg/kg PO) was 100% throughout.

The values are drawn from patent US20140158116A1, “INHIBITING TRPA1 FOR THE TREATMENT OF ASTHMA” (Cubist Pharmaceuticals, Inc., priority 2012, published 2014).
